Test results published in ChEMBL document CHEMBL1154503, “Calmodulin inhibitors from the fungus Emericella sp” (Bioorg Med Chem, 2009).

Experiments:
Calmodulin-1 [1] = biological target: T1, Calmodulin-1 (Homo sapiens, UniProt P0DP23); assay: Inhibition of recombinant calmodulin mediated bovine brain PDE1 activation assessed as effect on inorganic phosphate release by spectrophotometry
Calmodulin-1 [2] = biological target: T1, Calmodulin-1; assay: Inhibition of recombinant calmodulin mediated bovine brain PDE1 activation assessed as effect on inorganic phosphate release using variable calmodulin level by spectrophotometry

| IC50 (Calmodulin-1 [1]) [µM] | Ki (Calmodulin-1 [2]) [µM] | SMILES |
| --- | --- | --- |
| 9.59 |  | C=C(C)[C@H]1COc2c(C)cc3oc4c(C[C@H](Cl)C(C)(C)O)ccc(O)c4c(=O)c3c2[C@@H]1O |
| 5.62 | 13.9 | C=C(C)[C@H]1COc2c(C)cc3oc4c(C[C@H](O)C(C)(C)O)ccc(O)c4c(=O)c3c2[C@@H]1O [TAJIXANTHONE HYDRATE] |
| 5.54 | 25.4 | C=C(C)[C@H]1COc2c(C)cc3oc4c([C@H](OC)[C@@H]5OC5(C)C)ccc(O)c4c(=O)c3c2[C@@H]1O |
| 29.2 |  | C=C(C)[C@H]1COc2c(C)cc3oc4c(CC=C(C)C)ccc(O)c4c(=O)c3c2[C@@H]1O [SHAMIXANTHONE] |
